The nature of series [1]: Control reaction without enzyme (toluene / pH 7 phosphate buffer). The class given is physicochemical. As to the method: 3,4-Bis(ethoxycarbonyloxy)phenethyl palmitate (100 mg; 0.186 mmol) was dissolved in 2 mL of toluene. […] The mixture was stirred vigorously and periodically analyzed by HPLC. After 24 h, LC analysis indicated 75.4% conversion of Compound 2 to hydroxytyrosol. After 48 h, LC analysis indicated 82.6% conversion of Compound 2 to hydroxytyrosol.

Series [2] deals with T1, Novozyme 435 (Candida antarctica lipase B immobilized on an acrylic resin) (Moesziomyces antarcticus, UniProt P41365).
T1 construct: purchased Novozyme 435
T1 sequence (P41365 26-342): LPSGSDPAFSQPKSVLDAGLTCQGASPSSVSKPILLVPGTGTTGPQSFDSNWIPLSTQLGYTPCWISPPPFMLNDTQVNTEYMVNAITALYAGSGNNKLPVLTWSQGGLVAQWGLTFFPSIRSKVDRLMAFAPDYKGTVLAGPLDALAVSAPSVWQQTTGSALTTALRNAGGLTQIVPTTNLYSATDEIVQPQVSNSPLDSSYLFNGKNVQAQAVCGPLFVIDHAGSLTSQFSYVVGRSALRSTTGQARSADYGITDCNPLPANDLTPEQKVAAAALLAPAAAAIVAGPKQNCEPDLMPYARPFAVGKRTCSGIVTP
The series can be described thus: Enzymatic hydrolysis with Novozyme 435 in toluene / pH 7 phosphate buffer, conversion to hydroxytyrosol by HPLC. The class given is in vitro ADME. Particulars: 100 mg compound, 100 mg Novozyme 435, toluene / pH 7 phosphate buffer, LC analysis. As to the method:
3,4-Bis(ethoxycarbonyloxy)phenethyl palmitate (100 mg; 0.186 mmol) was dissolved in 2 mL of toluene. Novozyme 435 (Candida antarctica lipase B immobilized on an acrylic resin) (100 mg) was added followed by 2 mL of pH 7 phosphate buffer. The mixture was stirred vigorously and periodically analyzed by HPLC. After 24 h, LC analysis indicated 75.4% conversion of Compound 2 to hydroxytyrosol. After 48 h, LC analysis indicated 82.6% conversion of Compound 2 to hydroxytyrosol.
Hydroxytyrosol trihexanoate from Comparative Example 8 (100 mg; 0.223 mmol) was dissolved in 2 mL of toluene. Novozyme 435 (Candida antarctica lipase B immobilized on an acrylic resin)(100 mg) was added followed by 2 mL of pH 7 phosphate buffer. The mixture was stirred vigorously and periodically analyzed by HPLC. After 24 h, LC analysis indicated <1% conversion of hydroxytyrosol trihexanoate to hydroxytyrosol. After 48 h, LC analysis indicated <1% conversion of hydroxytyrosol trihexanoate to hydroxytyrosol.

The results in this text go back to patent US9334229B2, “Hydroxytyrosol derivatives, their method of preparation and use in personal care” (Eastman Chemical Company, priority 2013, dated 2016).

Some results are limits rather than exact numbers.

On to `CCCCCCCCCCCCCCCC(=O)OCCc1ccc(OC(=O)OCC)c(OC(=O)OCC)c1` [Compound 2, 3,4-Bis(ethoxycarbonyloxy)phenethyl palmitate], for which the “conversion to hydroxytyrosol in control reaction without enzyme” value in series [1] was “no conversion”.

Take `CCCCCC(=O)OCCc1ccc(OC(=O)CCCCC)c(OC(=O)CCCCC)c1` [Hydroxytyrosol trihexanoate, Hydroxytyrosol Trihexanoate]: the “Enzymatic conversion to hydroxytyrosol” value in series [2] (after 24 h) is given as under 1%; in series [2] (after 24 h, listed as hydroxytyrosol trihexanoate), under 1%; in series [2] (after 48 h), under 1%; in series [2] (after 48 h, listed as hydroxytyrosol trihexanoate) it was under 1%.
